# Results reported in patent US9458113B2 (Boehringer Ingelheim International GmbH, priority 2014, dated 2016).
# pIC50: −log10 of the molar value.
# Target: Human neutrophil elastase (Homo sapiens (Human), UniProt P08246)
# Test: Human Neutrophil Elastase Assay
# Assay type: biochemical
# Settings: substrate MeOSuc-Ala-Ala-Pro-Val-AMC 250 μM, pH 7.5
# Sequence of Human neutrophil elastase (P08246 30-247): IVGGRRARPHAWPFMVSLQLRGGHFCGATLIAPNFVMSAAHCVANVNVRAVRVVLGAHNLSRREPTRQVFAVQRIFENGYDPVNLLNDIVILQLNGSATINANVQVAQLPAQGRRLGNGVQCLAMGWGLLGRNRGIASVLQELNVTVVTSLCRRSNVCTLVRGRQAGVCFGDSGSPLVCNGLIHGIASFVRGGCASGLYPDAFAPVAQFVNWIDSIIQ
row,SMILES,pIC50
1,CN1C(=O)N(c2cccc(C(F)(F)F)c2)C2=C(C(=O)CC2)C1c1ccc(C#N)cc1C(=O)NCc1ccno1 (stereo not drawn) [Example 1.39],8.72
2,CCN1CCN(C(=O)c2cc(C#N)ccc2C2C3=C(CCC3=O)N(c3cccc(C(F)(F)F)c3)C(=O)N2C)CC1 (stereo not drawn) [Example 3.2],8.09
3,CN1C(=O)N(c2cccc(C(F)(F)F)c2)C2=C(C(=O)CC2)C1c1ccc(C#N)cc1C(=O)N1CCn2ccnc2C1 (stereo not drawn) [Example 1.68],> 9.00
4,CN(Cc1cnn(C)c1)C(=O)c1cc(C#N)ccc1C1C2=C(CCC2=O)N(c2cccc(C(F)(F)F)c2)C(=O)N1C (stereo not drawn) [Example 1.27],> 9.00
5,CN(C)CCN(C)C(=O)c1cc(C#N)ccc1C1C2=C(CCC2=O)N(c2cccc(C(F)(F)F)c2)C(=O)N1C (stereo not drawn) [Example 3.1],8.89
6,CN1CCN(C(=O)c2cc(C#N)ccc2[C@@H]2C3=C(CCC3=O)N(c3cccc(C(F)(F)F)c3)C(=O)N2C)CC1 [Example 2.4],8.51
7,CN1C(=O)N(c2cccc(C(F)(F)F)c2)C2=C(C(=O)CC2)C1c1ccc(C#N)cc1C(=O)NCc1cocn1 (stereo not drawn) [Example 1.44],8.47
8,CN(C)CCNC(=O)c1cc(C#N)ccc1C1C2=C(CCC2=O)N(c2cccc(C(F)(F)F)c2)C(=O)N1C (stereo not drawn) [Example 1.29],8.32
9,CN1CCC(NC(=O)c2cc(C#N)ccc2C2C3=C(CCC3=O)N(c3cccc(C(F)(F)F)c3)C(=O)N2C)CC1 (stereo not drawn) [Example 1.25],8.10
10,CN(Cc1nccn1C)C(=O)c1cc(C#N)ccc1C1C2=C(CCC2=O)N(c2cccc(C(F)(F)F)c2)C(=O)N1C (stereo not drawn) [Example 1.74],> 9.00
11,CN[C@H]1CCN(C(=O)c2cc(C#N)ccc2C2C3=C(CCC3=O)N(c3cccc(C(F)(F)F)c3)C(=O)N2C)C1 (stereo partly drawn) [Example 4.12],8.42
12,CN1C(=O)N(c2cccc(C(F)(F)F)c2)C2=C(C(=O)CC2)C1c1ccc(C#N)cc1C(=O)N1CC[C@H](N)C1 (stereo partly drawn) [Example 4.7],8.48
13,CN1C(=O)N(c2cccc(C(F)(F)F)c2)C2=C(C(=O)CC2)C1c1ccc(C#N)cc1C(=O)N[C@H]1C[C@H]1N (stereo partly drawn) [Example 4.14],8.31
14,CN1C(=O)N(c2cccc(C(F)(F)F)c2)C2=C(C(=O)CC2)C1c1ccc(C#N)cc1C(=O)NCc1ccco1 (stereo not drawn) [Example 1.36],8.66
15,CN1C(=O)N(c2cccc(C(F)(F)F)c2)C2=C(C(=O)CCC2)C1c1ccc(C#N)cc1-c1cncs1 (stereo not drawn) [Example 15.3],8.72
16,CN1C(=O)N(c2cccc(C(F)(F)F)c2)C2=C(C(=O)CC2)C1c1ccc(C#N)cc1C(=O)N1CCC(N2CCOCC2)C1 (stereo not drawn) [Example 1.79],8.52
17,CN1C(=O)N(c2cccc(C(F)(F)F)c2)C2=C(C(=O)CCC2)C1c1ccc(C#N)cc1-c1cn[nH]c1 (stereo not drawn) [Example 15.4],8.80
18,"CN1C(=O)N(c2cccc(C(F)(F)F)c2)C2=C(C(=O)CC2)C1c1ccc(C#N)cc1C1=CCN(C(=O)OC(C)(C)C)CC1 (stereo not drawn) [Example 11.6, 4-{5-Cyano-2-[3-methyl-2,5-dioxo-1-(3-trifluoromethyl-phenyl)-2,3,4,5,6,7-hexahydro-1H-cyclopentapyrimidin-4-yl]-phenyl}-3,6-dihydro-2H-pyridine-1-carboxylic acid tert-butyl ester]",8.77
19,CN(C)C(=O)c1cc(C#N)ccc1C1C2=C(CCCC2=O)N(c2cccc(C(F)(F)F)c2)C(=O)N1C (stereo not drawn) [Example 6.4],8.96

row,SMILES,pIC50
1,CN(C)C(=O)c1cc(C#N)ccc1C1C2=C(CCC2=O)N(c2cccc(C(F)(F)F)c2)C(=O)N1C (stereo not drawn) [Example 1.3],8.27
2,"CN1C(=O)N(c2cccc(C(F)(F)F)c2)C2=C(C(=O)CCC2)C1c1ccc(C#N)cc1C(N)=O (stereo not drawn) [Example 6, 5-Cyano-2-[3-methyl-2,5-dioxo-1-(3-trifluoromethyl-phenyl)-1,2,3,4,5,6,7,8-octahydro-quinazolin-4-yl]-benzamide]",8.80
3,"CN1C(=O)N(c2ccnc(C(F)(F)F)c2)C2=C(C(=O)CC2)C1c1ccc(C#N)cc1C1=CCNCC1 (stereo not drawn) [Example 18, 4-[3-Methyl-2,5-dioxo-1-(2-trifluoromethyl-pyridin-4-yl)-2,3,4,5,6,7-hexahydro-1H-cyclopentapyrimidin-4-yl]-3-(1,2,3,6-tetrahydro-pyridin-4-yl)-benzonitrile]",8.77
4,CN1C(=O)N(c2cccc(C(F)(F)F)c2)C2=C(C(=O)CC2)C1c1ccc(C#N)cc1C(=O)N1CCC1 (stereo not drawn) [Example 1.7],8.66
5,CN1C(=O)N(c2cccc(C(F)(F)F)c2)C2=C(C(=O)CC2)C1c1ccc(C#N)cc1C(=O)NC1CCOCC1 (stereo not drawn) [Example 1.23],8.08
6,COCCCNC(=O)c1cc(C#N)ccc1C1C2=C(CCC2=O)N(c2cccc(C(F)(F)F)c2)C(=O)N1C (stereo not drawn) [Example 1.20],8.24
7,CN1C(=O)N(c2cccc(C(F)(F)F)c2)C2=C(C(=O)CC2)C1c1ccc(C#N)cc1-c1ccc(=O)n(C)c1 (stereo not drawn) [Example 11.16],> 9.00
8,CN1C(=O)N(c2cccc(C(F)(F)F)c2)C2=C(C(=O)CC2)C1c1ccc(C#N)cc1C(=O)NCc1ncco1 (stereo not drawn) [Example 1.41],8.42
9,CC(C)NCc1cc(C#N)ccc1C1C2=C(CCC2=O)N(c2cccc(C(F)(F)F)c2)C(=O)N1C (stereo not drawn) [Example 9.1],8.68
10,CCNC(=O)c1cc(C#N)ccc1C1C2=C(CCC2=O)N(c2cccc(C(F)(F)F)c2)C(=O)N1C (stereo not drawn) [Example 1.2],8.26
11,CN1C(=O)N(c2cccc(C(F)(F)F)c2)C2=C(C(=O)CC2)C1c1ccc(C#N)cc1C(=O)NCc1ccoc1 (stereo not drawn) [Example 1.37],8.47
12,CC(=O)N(C)[C@@H]1CCN(C(=O)c2cc(C#N)ccc2C2C3=C(CCC3=O)N(c3cccc(C(F)(F)F)c3)C(=O)N2C)C1 (stereo partly drawn) [Example 1.78],8.59
13,CN1C(=O)N(c2cccc(C(F)(F)F)c2)C2=C(C(=O)CC2)C1c1ccc(C#N)cc1C(=O)NC1COC1 (stereo not drawn) [Example 1.12],8.28
14,"CN1C(=O)N(c2cccc(C(F)(F)F)c2)C2=C(C(=O)CC2)C1c1ccc(C#N)cc1C(N)=O (stereo not drawn) [Example 1, 5-Cyano-2-[3-methyl-2,5-dioxo-1-(3-trifluoromethyl-phenyl)-2,3,4,5,6,7-hexahydro-1H-cyclopentapyrimidin-4-yl]-benzamide]",8.28
15,CN(Cc1cncn1C)C(=O)c1cc(C#N)ccc1C1C2=C(CCC2=O)N(c2cccc(C(F)(F)F)c2)C(=O)N1C (stereo not drawn) [Example 1.72],> 9.00
16,CN1C(=O)N(c2cccc(C(F)(F)F)c2)C2=C(C(=O)CC2)C1c1ccc(C#N)cc1C(=O)N[C@@H]1CCNC1 (stereo partly drawn) [Example 4.9],8.19
17,CNCc1cc(C#N)ccc1C1C2=C(CCC2=O)N(c2cccc(C(F)(F)F)c2)C(=O)N1C (stereo not drawn) [Example 9.4],8.66
18,"CN1C(=O)N(c2cccc(C(F)(F)F)c2)C2=C(C(=O)CC2)C1c1ccc(C#N)cc1-c1cnco1 (stereo not drawn) [Example 10, 4-[3-Methyl-2,5-dioxo-1-(3-trifluoromethyl-phenyl)-2,3,4,5,6,7-hexahydro-1H-cyclopentapyrimidin-4-yl]-3-oxazol-5-yl-benzonitrile]",8.92
19,CN1C(=O)N(c2cccc(C(F)(F)F)c2)C2=C(C(=O)CC2)C1c1ccc(C#N)cc1C(=O)NCC(F)F (stereo not drawn) [Example 1.16],8.22

row,SMILES,pIC50
1,CN1C(=O)N(c2cccc(C(F)(F)F)c2)C2=C(C(=O)CC2)C1c1ccc(C#N)cc1C(=O)N1C[C@H]2C[C@@H]1CN2 (stereo partly drawn) [Example 4.15],8.14
2,CN1C(=O)N(c2cccc(C(F)(F)F)c2)C2=C(C(=O)CC2)C1c1ccc(C#N)cc1C(=O)NCc1ccon1 (stereo not drawn) [Example 1.43],8.70
3,CN1C(=O)N(c2cccc(C(F)(F)F)c2)C2=C(C(=O)CC2)C1c1ccc(C#N)cc1C(=O)N1CCC(N)CC1 (stereo not drawn) [Example 4.1],7.82
4,CN(Cc1ccon1)C(=O)c1cc(C#N)ccc1C1C2=C(CCC2=O)N(c2cccc(C(F)(F)F)c2)C(=O)N1C (stereo not drawn) [Example 1.59],8.96
5,CN1C(=O)N(c2cccc(C(F)(F)F)c2)C2=C(C(=O)CC2)C1c1ccc(C#N)cc1C(=O)N1CCN2CCCC2C1 (stereo not drawn) [Example 3.3],8.12
6,"CN1C(=O)N(c2cccc(C(F)(F)F)c2)C2=C(C(=O)CC2)C1c1ccc(C#N)cc1C(=O)NC1CCC(O)C1 (stereo not drawn) [Example 3, 5-Cyano-N-(3-hydroxy-cyclopentyl)-2-[3-methyl-2,5-dioxo-1-(3-trifluoromethyl-phenyl)-2,3,4,5,6,7-hexahydro-1H-cyclopentapyrimidin-4-yl]-benzamide]",8.12
7,CN1C(=O)N(c2cccc(C(F)(F)F)c2)C2=C(C(=O)CC2)C1c1ccc(C#N)cc1-c1cncs1 (stereo not drawn) [Example 11.3],8.72
8,CN(CCN)C(=O)c1cc(C#N)ccc1C1C2=C(CCC2=O)N(c2cccc(C(F)(F)F)c2)C(=O)N1C (stereo not drawn) [Example 4.5],8.70
9,CN1C(=O)N(c2cccc(C(F)(F)F)c2)C2=C(C(=O)CC2)C1c1ccc(C#N)cc1-c1ccco1 (stereo not drawn) [Example 11.8],8.48
10,CN1C(=O)N(c2cccc(C(F)(F)F)c2)C2=C(C(=O)CC2)C1c1ccc(C#N)cc1C(=O)N1CC2COCC(C1)N2 (stereo not drawn) [Example 4.17],7.44
11,CN1C(=O)N(c2cccc(C(F)(F)F)c2)C2=C(C(=O)CC2)C1c1ccc(C#N)cc1C(=O)NC1CC1 (stereo not drawn) [Example 1.6],8.20
12,CN(CCN1CCOCC1)C(=O)c1cc(C#N)ccc1C1C2=C(CCC2=O)N(c2cccc(C(F)(F)F)c2)C(=O)N1C (stereo not drawn) [Example 1.81],8.80
13,CN(C)C(=O)c1cc(C#N)ccc1C1C2=C(CCC2=O)N(c2ccnc(C(F)(F)F)c2)C(=O)N1C (stereo not drawn) [Example 8.2],7.77
14,CN1C(=O)N(c2cccc(C(F)(F)F)c2)C2=C(C(=O)CC2)C1c1ccc(C#N)cc1C(=O)NCc1cn[nH]c1 (stereo not drawn) [Example 1.38],8.30
15,CN1C(=O)N(c2cccc(C(F)(F)F)c2)C2=C(C(=O)CC2)C1c1ccc(C#N)cc1-c1ccn(C)n1 (stereo not drawn) [Example 11.1],8.06
16,CN1C(=O)N(c2cccc(C(F)(F)F)c2)C2=C(C(=O)CC2)C1c1ccc(C#N)cc1C(=O)NCC(C)(C)N (stereo not drawn) [Example 4.11],8.21
17,CN1C(=O)N(c2cccc(C(F)(F)F)c2)C2=C(C(=O)CC2)C1c1ccc(C#N)cc1C(=O)N1CC[C@@H](N)C1 (stereo partly drawn) [Example 4.8],8.23
18,CN1C(=O)N(c2cccc(C(F)(F)F)c2)C2=C(C(=O)CCC2)C1c1ccc(C#N)cc1C1=CCOCC1 (stereo not drawn) [Example 15.9],8.89
19,"N#Cc1ccc(C2NC(=O)N(c3cccc(C(F)(F)F)c3)C3=C2C(=O)CC3)c(-c2ccoc2)c1 (stereo not drawn) [Example 19, 4-[2,5-Dioxo-1-(3-trifluoromethyl-phenyl)-2,3,4,5,6,7-hexahydro-1H-cyclopentapyrimidin-4-yl]-3-furan-3-yl-benzonitrile]",8.00
